Paper PMC6332093, “Development of Radiolabeled Membrane Type-1 Matrix Metalloproteinase Activatable Cell Penetrating Peptide Imaging Probes” (Molecules, 2015)

Target: MT1-MMP (Homo sapiens, UniProt P50281)
Test: MT1-MMP sensitivity of ACPP probes (LC-MS)
Format: biochemical
Conditions: peptide 0.1 mM, MT1-MMP 0.13 µM (method section: 15 nM), 60 min, 37 °C, 50 mM Tris, 200 mM NaCl, 10 mM CaCl2, 10 µM ZnCl2, pH 7.5, LC-MS; cleavage between Asn and Leu
Description: The peptides ACPP-A, ACPP-B, and ACPP-C (without SHPP functionality) were screened for MT1-MMP sensitivity by incubating the peptides (0.1 mM) with MT1-MMP (0.13 µM) for 60 min. For ACPP-A, a small fraction (<5%) of the peptide was cleaved between the asparagine and leucine residue (Figure 3A). […] ACPP-A analogs (a peptide probe lacking the 5-amino-3-oxapentanoic acid linker residues and its linear analog) were also synthesized and tested for MT1-MMP sensitivity, showing also a low degree of activation (Figure S2). Accordingly, a recent study found a poor response of a genetically encoded MT1-MMP biosensor employing the same substrate. […] Therefore, further in-depth analysis of the MT1-MMP specificity and in vivo characteristics of ACPP-A was not performed.
Figure 3 LC-MS characterization of ACPP-A, ACPP-B, and ACPP-C (0.1 mM) incubated with MT1-MMP (0.13 µM) for 60 min. The left and right graphs show the UV absorbance chromatogram and the mass spectra of the UV-peaks bracketed by the arrowheads, respectively. […]
ACPP-A, ACPP-B, and ACPP-C (0.1 mM) were incubated with 15 nM MT1-MMP in a mixture of 50 mM Tris, 200 mM NaCl, 10 mM CaCl2 and 10 µM ZnCl2 at pH 7.5 at 700 rpm and 37 °C. After 1 h, the enzyme was quenched by the addition of TFA (10% v/v), and the reaction mixture was analyzed by LC-MS.

CC(=O)N[C@H](Cc1ccc(O)cc1)C(=O)N[C@H](CCC(=O)O)C(=O)N[C@H](CCC(=O)O)C(=O)N[C@H](CCC(=O)O)C(=O)N[C@H](CCC(=O)O)C(=O)N[C@H](CCC(=O)O)C(=O)N[C@H](CCC(=O)O)C(=O)N[C@H](CCC(=O)O)C(=O)N[C@H](CCC(=O)O)C(=O)N[C@H](CCC(=O)O)C(=O)NCCOCC(=O)N[C@H]1CSSC[C@@H](C(=O)N[C@@H](CC(N)=O)C(=O)N[C@@H](CC(C)C)C(=O)N[C@@H](Cc2ccccc2)C(=O)N[C@H](C(=O)N[C@@H](CC(C)C)C(=O)N[C@@H](CCCCN)C(=O)N[C@@H](CC(=O)O)C(=O)NCCOCC(=O)N[C@H](CCCNC(=N)N)C(=O)N[C@H](CCCNC(=N)N)C(=O)N[C@H](CCCNC(=N)N)C(=O)N[C@H](CCCNC(=N)N)C(=O)N[C@H](CCCNC(=N)N)C(=O)N[C@H](CCCNC(=N)N)C(=O)N[C@H](CCCNC(=N)N)C(=O)N[C@H](CCCNC(=N)N)C(=O)N[C@H](CCCNC(=N)N)C(=O)N[C@H](CCNC(=O)CN2CCN(CC(=O)O)CCN(CC(=O)O)CCN(CC(=O)O)CC2)C(N)=O)C(C)C)NC(=O)[C@H](CO)NC(=O)[C@H](CCC(=O)O)NC(=O)[C@H](CCCCN)NC(=O)[C@@H]2CCCN2C1=O [ACPP-A, Ac-y-e9-X-C*PKESC*NLFVLKD-X-r9-dab(DOTA)-NH2]
fraction of the peptide cleaved by MT1-MMP: < 5%
